In the assay the test system is B16BL6 cells. Description: Cancer metastasis: B16BL6 melanoma colonies in lung. It is filed as in vivo, C57BL/6 male mouse. How it is done:
B16BL6 cells (5×10^4) were injected into C57BL/6 male mouse of 6 to 7 weeks old through the tail vein. After that, 0.2 ml of water or drug combinations was daily given to mice by oral administration for 3 weeks. Three weeks after injection, the mice were sacrificed and the number of tumor colonies on the surface of lungs was counted under microscope. The average number of melanoma colonies in lungs from mice of treated group was less than that from control mice.

SMILES strings stand for the structures.

Take `Clc1ccccc1CN1CCc2sccc2C1` [Ticlopidine, ticlopidine]: the “Inhibition (%) of metastasis” value (oral daily for 3 weeks) is 38%. In addition, for the setting “oral daily for 3 weeks after tail vein injection of B16BL6 cells”, the Colonies in lung was 83 ± 20.

The record behind these values is patent US7485327B2, “Composition comprising Melissa leaf extract for anti-angiogenic and matrix metalloproteinase inhibitory activity” (AngioLab, Inc., priority 2001, dated 2009).
